Test results: patent US20260062422A1 (Halda Therapeutics OpCo, Inc., priority 2022, published 2026)

Tests used:
[1] = system: T-Rex 293 cell line SC3 cells having increased expression of androgen receptor protein due to exposure to doxycycline; test: Cellular growth inhibition, T-Rex 293 SC3 cells with doxycycline (androgen receptor induced), CellTiter-Glo; format: cell-based; conditions: 72 h, T-Rex 293 SC3 cells with 10 ng/mL doxycycline (increased androgen receptor expression)
Summary of the method: (§1)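 With DMSO (0.5%) vehicle as negative control, compounds treated SC3 cells for 72 h in medium containing charcoal-dextran FBS ± doxycycline. This T-Rex 293 clone expresses transfected wild-type AR on induction. Readout: CellTiter-Glo 2.0; GI50 by nonlinear regression.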

[2] = system: T-Rex 293 cell line SC3 cells lacking increased expression of androgen receptor protein; test: Cellular growth inhibition, T-Rex 293 SC3 cells without doxycycline, CellTiter-Glo; format: cell-based; conditions: 72 h, T-Rex 293 SC3 cells not exposed to doxycycline, CellTiter-Glo 2.0
Summary of the method: as §1

[3] = system: VCaP cells; test: Cellular growth inhibition assay for VCaP cells, CellTiter-Glo; format: cell-based, human; conditions: Homo sapiens, VCaP, 72 h, 72 hours treatment, CellTiter-Glo 2.0
Summary of the method: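 GI50 values come from four-parameter curve fits of luminescence data normalized to a zero baseline. Compound, in medium with 0.5% DMSO, was added one day after plating and left for 72 h before CellTiter-Glo 2.0 addition.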

[4] = system: T47D cells; test: Cellular growth inhibition assay for T47D cells, CellTiter-Glo; format: cell-based, human; conditions: Homo sapiens, T47D, 72 h, 72 hours treatment, CellTiter-Glo 2.0 cell viability
Summary of the method: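 Luminescence from CellTiter-Glo 2.0 after 72 h of compound exposure gives the viability signal. Cells grew in insulin-supplemented (0.2 units/mL) DMEM with 10% FBS and were treated one day after seeding at 0.5% DMSO. GI50 values come from four-parameter nonlinear regression.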

Compound | GI50 [1] | GI50 [2] | GI50 [3] | GI50 [4]
Cc1sc2c(c1C)C(c1ccc(C(=O)N3CC[C@@]4(CCCN(c5ncc(C(=O)N[C@H]6C(C)(C)[C@H](Oc7ccc(C#N)c(Cl)c7)C6(C)C)cn5)C4)C3)cc1)=N[C@@H](Cc1ncco1)c1nnc(C)n1-2 [Compound I-256] | > 3000 nM | > 3000 nM | > 3000 nM | > 3000 nM
Cc1sc2c(c1C)C(c1ccc(C(=O)N3CC[C@@]4(CCCN(c5ncc(C(=O)N[C@H]6C(C)(C)[C@H](Oc7ccc(C#N)c(Cl)c7)C6(C)C)cn5)C4)C3)cc1)=N[C@H](Cc1ncco1)c1nnc(C)n1-2 [Compound I-257] | < 500 nM | > 3000 nM | > 3000 nM | 1500 to 3000 nM
Cc1sc2c(c1C)C(c1ccc(C(=O)N3CC[C@]4(CCCN(c5ncc(C(=O)N[C@H]6C(C)(C)[C@H](Oc7ccc(C#N)c(Cl)c7)C6(C)C)cn5)C4)C3)cc1)=N[C@@H](Cc1ncco1)c1nnc(C)n1-2 [Compound I-258] | < 500 nM | > 3000 nM | > 3000 nM | 1500 to 3000 nM
Cc1sc2c(c1C)C(c1ccc(C(=O)N3CC[C@]4(CCCN(c5ncc(C(=O)N[C@H]6C(C)(C)[C@H](Oc7ccc(C#N)c(Cl)c7)C6(C)C)cn5)C4)C3)cc1)=N[C@H](Cc1ncco1)c1nnc(C)n1-2 [Compound I-259] | < 500 nM | > 3000 nM | 1500 to 3000 nM | 500 to 1500 nM
Cc1sc2c(c1C)C(c1ccc(O[C@@H]3CCCN(c4ncc(C(=O)N[C@H]5C(C)(C)[C@H](Oc6ccc(C#N)c(Cl)c6)C5(C)C)cn4)C3)cc1)=N[C@@H](Cc1ncco1)c1nnc(C)n1-2 [Compound I-260] | < 500 nM | 1500 to 3000 nM | < 500 nM | < 500 nM
Cc1sc2c(c1C)C(c1ccc(OC3CCN(c4ncc(C(=O)N[C@H]5C(C)(C)[C@H](Oc6ccc(C#N)c(Cl)c6)C5(C)C)cn4)CC3)cc1)=N[C@@H](C)c1nnc(C)n1-2 [Compound I-261] | < 500 nM | 1500 to 3000 nM | 500 to 1500 nM | 500 to 1500 nM
Cc1sc2c(c1C)C(c1ccc(OC3CC4(CCN(c5ncc(C(=O)N[C@H]6C(C)(C)[C@H](Oc7ccc(C#N)c(Cl)c7)C6(C)C)cn5)CC4)C3)cc1)=N[C@@](C)(C(C)c1ncco1)c1nnc(C)n1-2 (stereo partly drawn) [Compound I-262] | < 500 nM | > 3000 nM | > 3000 nM | > 3000 nM
Cc1sc2c(c1C)C(c1ccc(CNC(=O)C3CCN(c4ncc(C(=O)N[C@H]5C(C)(C)[C@H](Oc6ccc(C#N)c(Cl)c6)C5(C)C)cn4)CC3)cc1)=N[C@@H](Cc1ncco1)c1nnc(C)n1-2 [Compound I-263] | < 500 nM | 1500 to 3000 nM | < 500 nM | < 500 nM
Cc1sc2c(c1C)C(c1ccc(CNC(=O)[C@H]3CCCN(c4ncc(C(=O)N[C@H]5C(C)(C)[C@H](Oc6ccc(C#N)c(Cl)c6)C5(C)C)cn4)C3)cc1)=N[C@@H](Cc1ncco1)c1nnc(C)n1-2 [Compound I-264] | < 500 nM | < 500 nM | < 500 nM | < 500 nM
Cc1sc2c(c1C)C(c1ccc(CNC(=O)[C@@H]3CCCN(c4ncc(C(=O)N[C@H]5C(C)(C)[C@H](Oc6ccc(C#N)c(Cl)c6)C5(C)C)cn4)C3)cc1)=N[C@@H](Cc1ncco1)c1nnc(C)n1-2 [Compound I-265] | < 500 nM | 1500 to 3000 nM | < 500 nM | < 500 nM
Cc1sc2c(c1C)C(c1ccc(CNC(=O)CN(C)c3ncc(C(=O)N[C@H]4C(C)(C)[C@H](Oc5ccc(C#N)c(Cl)c5)C4(C)C)cn3)cc1)=N[C@@H](Cc1ncco1)c1nnc(C)n1-2 [Compound I-266] | < 500 nM | > 3000 nM | < 500 nM | 500 to 1500 nM
Cc1sc2c(c1C)C(c1ccc(C#C[C@H]3C[C@@]4(CCCN(c5ncc(C(=O)N[C@H]6C(C)(C)[C@H](Oc7ccc(C#N)c(Cl)c7)C6(C)C)cn5)C4)C3)cc1)=N[C@@H](Cc1ncco1)c1nnc(C)n1-2 [Compound I-268] | < 500 nM | > 3000 nM | 1500 to 3000 nM | 500 to 1500 nM
